Assay [1] deals with T1, human transferrin receptor (hTfR) (Homo sapiens, UniProt P02786). Put plainly: SPR measurement under pH 7.4 conditions (Biacore T200, CM3 chip, hTfR captured by His Tag antibody). It counts as binding. The conditions noted are these: read-out: hTfR SPR pH7.4 KD.
The target in assay [2] is T1, human transferrin receptor (hTfR). Kind of assay: SPR measurement under pH 6.0 conditions (Biacore T200, NTA chip, immobilized hTfR). It counts as binding. The conditions noted are these: read-out: hTfR SPR pH6.0 KD.

Data on eleven compounds can be found in patent EP4667483A1, “HUMAN TRANSFERRIN RECEPTOR-BINDING PEPTIDE” (JCR Pharmaceuticals Co., Ltd., priority 2023, dated 2024).

Numbered stars: 1 amine (or outer) side, 2 acyl side, 3 side chain; on linkers, the order of the positions; unused ones are H or OH. Bridge positions count the residues as written; N and C are the ends. Square brackets hold non-standard residues; d marks the D form. Peptide text beside a SMILES is read from it. * marks the point of attachment. Trp(1-CH2COOH) = N[C@@H](Cc1cn(CC(=O)O)c2ccccc12)C(=O)O; CH2CON(CH2CH2)2NCH2COOH = O=C(O)CN1CCN(C(=O)C*)CC1; NMePhe(4-COOH) = CN[C@@H](Cc1ccc(C(=O)O)cc1)C(=O)O; X1 = O=C([C@H](Cc1cccc(C(=O)[*:3])c1)N[*:1])[*:2]; Nle(6-morpholino) = N[C@@H](CCCCN1CCOCC1)C(=O)O; Phe(3-COOH) = N[C@@H](Cc1cccc(C(=O)O)c1)C(=O)O; Trp(7-aza) = N[C@@H](Cc1c[nH]c2ncccc12)C(=O)O; NH(CH2CH2O)8Me = COCCOCCOCCOCCOCCOCCOCCOCCN*; NMePhe(3-Cl) = CN[C@@H](Cc1cccc(Cl)c1)C(=O)O; 3Pal(6-NH2) = Nc1ccc(C[C@H](N)C(=O)O)cn1; NMeW = CN[C@@H](Cc1c[nH]c2ccccc12)C(=O)O; NMeY = CN[C@@H](Cc1ccc(O)cc1)C(=O)O; Nva(3-Et) = CCC(CC)[C@H](N)C(=O)O; NMeF = CN[C@@H](Cc1ccccc1)C(=O)O; 4Pal = N[C@@H](Cc1ccncc1)C(=O)O; PEG4 = NCCOCCOCCOCCOCCC(=O)O; Carboxymethyl = O=C(O)C*

T1 sequence (P02786 whole entry): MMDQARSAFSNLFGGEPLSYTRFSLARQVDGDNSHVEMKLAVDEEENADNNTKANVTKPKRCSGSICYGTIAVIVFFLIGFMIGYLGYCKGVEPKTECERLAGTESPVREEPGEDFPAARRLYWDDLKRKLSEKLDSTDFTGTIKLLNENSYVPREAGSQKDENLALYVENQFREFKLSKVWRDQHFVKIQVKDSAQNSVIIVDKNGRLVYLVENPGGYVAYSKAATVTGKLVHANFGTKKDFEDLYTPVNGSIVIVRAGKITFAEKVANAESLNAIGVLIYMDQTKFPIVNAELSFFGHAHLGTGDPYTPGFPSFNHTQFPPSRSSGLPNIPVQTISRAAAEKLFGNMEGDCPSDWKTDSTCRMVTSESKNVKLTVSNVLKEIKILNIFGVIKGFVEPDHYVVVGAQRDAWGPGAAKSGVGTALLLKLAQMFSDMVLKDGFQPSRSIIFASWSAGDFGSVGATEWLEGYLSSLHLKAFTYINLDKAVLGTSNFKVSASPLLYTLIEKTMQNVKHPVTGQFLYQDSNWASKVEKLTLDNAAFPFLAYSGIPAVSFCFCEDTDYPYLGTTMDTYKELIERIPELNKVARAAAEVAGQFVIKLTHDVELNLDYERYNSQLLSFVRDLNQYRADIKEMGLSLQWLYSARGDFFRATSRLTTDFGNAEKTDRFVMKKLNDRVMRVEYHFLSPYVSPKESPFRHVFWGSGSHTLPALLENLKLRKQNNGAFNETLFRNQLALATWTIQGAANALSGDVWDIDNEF

For the compound `CCC(CC)[C@@H]1NC(=O)[C@H](Cc2ccc(OCC(=O)O)cc2)NC(=O)[C@H](Cc2ccc(N)nc2)NC(=O)[C@H](CC(N)=O)NC(=O)[C@H](Cc2c[nH]c3ncccc23)NC(=O)[C@H](C(C)C)NC(=O)[C@H](Cc2cccc(Cl)c2)N(C)C(=O)[C@H](C(C)C)NC(=O)[C@H](C)NC(=O)CSC[C@@H](C(=O)NCCOCCOCCOCCOCCC(N)=O)NC(=O)[C@H](Cc2ccc(C(=O)O)cc2)N(C)C(=O)[C@H](Cc2cccc(C(=O)O)c2)NC(=O)[C@H](CCCNC(=N)N)NC(=O)[C@H](CCC(N)=O)NC(=O)[C@H]([C@@H](C)CC)NC1=O` [compound 45] ({CH2CO}-AV[NMePhe(3-Cl)]V[Trp(7-aza)]N[3Pal(6-NH2)]Y(Carboxymethyl)[Nva(3-Et)]IQR[Phe(3-COOH)][NMePhe(4-COOH)]C[PEG4]-NH2; thioether N-15), the Kd in assay [1] (pH 7.4, single-cycle kinetics) came out at 75.5 nM; in assay [2] (pH 6.0, single-cycle kinetics), 869 nM.

On to `CC[C@H](C)[C@@H]1NC(=O)[C@H](Cc2ccc(OC)cc2)NC(=O)[C@H](Cc2ccc(N)nc2)NC(=O)[C@H](CC(N)=O)NC(=O)[C@H](Cc2c[nH]c3ccccc23)NC(=O)[C@H](C(C)C)NC(=O)[C@H](Cc2cccc(Cl)c2)N(C)C(=O)[C@H](C(C)C)NC(=O)[C@H](C)NC(=O)CSC[C@@H](C(=O)NCCOCCOCCOCCOCCC(N)=O)NC(=O)[C@H](Cc2ccc(O)cc2)N(C)C(=O)[C@H](Cc2ccncc2)NC(=O)[C@H](CCCNC(=N)N)NC(=O)[C@H](CCCCN)NC(=O)[C@H]([C@@H](C)CC)NC1=O` [compound 57] ({CH2CO}-AV[NMePhe(3-Cl)]VWN[3Pal(6-NH2)]Y(Me)IIKR[4Pal][NMeY]C[PEG4]-NH2; thioether N-15), for which the dissociation constant Kd in assay [1] (pH 7.4, single-cycle kinetics) stood at 0.971 nM; in assay [2] (pH 6.0, single-cycle kinetics) it was 5.4 nM.

Take `CC[C@H](C)[C@@H]1NC(=O)[C@H](Cc2ccc(OC)cc2)NC(=O)[C@H](Cc2ccc(N)nc2)NC(=O)[C@H](CC(N)=O)NC(=O)[C@H](Cc2c[nH]c3ccccc23)NC(=O)[C@H](C(C)C)NC(=O)[C@H](Cc2cccc(Cl)c2)N(C)C(=O)[C@H](C(C)C)NC(=O)[C@H](C)NC(=O)CSC[C@@H](C(=O)NCCOCCOCCOCCOCCC(N)=O)NC(=O)[C@H](Cc2ccc(C(=O)O)cc2)N(C)C(=O)[C@H](Cc2ccncc2)NC(=O)[C@H](CCCNC(=N)N)NC(=O)[C@H](CCCCN)NC(=O)[C@H]([C@@H](C)CC)NC1=O` [compound 59] ({CH2CO}-AV[NMePhe(3-Cl)]VWN[3Pal(6-NH2)]Y(Me)IIKR[4Pal][NMePhe(4-COOH)]C[PEG4]-NH2; thioether N-15): the Kd worked out at 1.46 nM in assay [1] (pH 7.4, single-cycle kinetics) and 9.57 nM in assay [2] (pH 6.0, single-cycle kinetics).

Regarding `CCC(CC)[C@@H]1NC(=O)[C@H](Cc2ccc(OC)cc2)NC(=O)[C@H](Cc2ccc(N)nc2)NC(=O)[C@H](CC(N)=O)NC(=O)[C@H](Cc2cnc3ccccn23)NC(=O)[C@H](C(C)C)NC(=O)[C@H](Cc2cccc(Cl)c2)N(C)C(=O)[C@H](C(C)C)NC(=O)[C@H](C)NC(=O)CSC[C@@H](C(=O)NCC(=O)N[C@H](CCC(=O)O)C(=O)N[C@H](CCC(=O)O)C(=O)N[C@H](CCC(=O)O)C(=O)N[C@H](CO)C(=O)N[C@H](CO)C(=O)N[C@@H](CCCCN=[N+]=[N-])C(N)=O)NC(=O)[C@H](Cc2ccc(C(=O)O)cc2)N(C)C(=O)[C@H](Cc2ccncc2)NC(=O)[C@H](CCCNC(=N)N)NC(=O)[C@H](CCCNC(=N)N)NC(=O)[C@H]([C@@H](C)CC)NC1=O` [compound 184], the Kd came to 136 nM in assay [1] (SPR, pH 7.4, Table 1-3-2-2) and 121 nM in assay [2] (SPR, pH 6.0, Table 1-3-2-2).

As to `CCC(CC)[C@@H]1NC(=O)[C@H](Cc2ccc(OCC(=O)O)cc2)NC(=O)[C@H](Cc2ccc(N)nc2)NC(=O)[C@H](CC(N)=O)NC(=O)[C@H](Cc2cn(CC(=O)O)c3ccccc23)NC(=O)[C@H](C(C)C)NC(=O)[C@H](Cc2cccc(Cl)c2)N(C)C(=O)[C@H](C(C)C)NC(=O)[C@H](C)NC(=O)CSC[C@@H](C(=O)NCCOCCOCCOCCOCCC(N)=O)NC(=O)[C@H](Cc2ccc(O)cc2)N(C)C(=O)[C@H](Cc2ccncc2)NC(=O)[C@H](CCCNC(=N)N)NC(=O)[C@H](CCC(=O)NCCOCCOCCOCCOCCOCCOCCOCCOC)NC(=O)[C@H]([C@@H](C)CC)NC1=O` [compound 48] ({CH2CO}-AV[NMePhe(3-Cl)]V[Trp(1-CH2COOH)]N[3Pal(6-NH2)]Y(Carboxymethyl)[Nva(3-Et)]IE(NH(CH2CH2O)8Me)R[4Pal][NMeY]C[PEG4]-NH2; thioether N-15), the Kd is 111 nM in assay [1] (pH 7.4, single-cycle kinetics) and 536 nM in assay [2] (pH 6.0, single-cycle kinetics).

As for `CC[C@H](C)[C@@H]1NC(=O)[C@H](Cc2ccc(OCC(=O)N3CCN(CC(=O)O)CC3)cc2)NC(=O)[C@H](Cc2ccc(O)cc2)NC(=O)[C@H](CC(N)=O)NC(=O)[C@H](Cc2cn(CC(=O)O)c3ccccc23)NC(=O)[C@H](C(C)C)NC(=O)[C@H](Cc2cccc(Cl)c2)N(C)C(=O)[C@H](C(C)C)NC(=O)[C@H](C)NC(=O)CSC[C@@H](C(=O)NCCOCCOCCOCCOCCC(N)=O)NC(=O)[C@H](Cc2ccc(O)cc2)N(C)C(=O)[C@H](Cc2cccc(C(=O)O)c2)NC(=O)[C@H](CCCCN2CCOCC2)NC(=O)[C@H](CCC(N)=O)NC(=O)[C@H]([C@@H](C)CC)NC1=O` [compound 35] ({CH2CO}-AV[NMePhe(3-Cl)]V[Trp(1-CH2COOH)]NYY(CH2CON(CH2CH2)2NCH2COOH)IIQ[Nle(6-morpholino)][Phe(3-COOH)][NMeY]C[PEG4]-NH2; thioether N-15), the Kd in assay [1] (pH 7.4, single-cycle kinetics) is 1.74 nM; in assay [2] (pH 6.0, single-cycle kinetics) it was 37 nM.

As for `CC[C@H](C)[C@@H]1NC(=O)[C@H](Cc2ccc(OC)cc2)NC(=O)[C@H](Cc2ccc(N)nc2)NC(=O)[C@H](CC(N)=O)NC(=O)[C@H](Cc2c[nH]c3ncccc23)NC(=O)[C@H](C(C)C)NC(=O)[C@H](Cc2cccc(Cl)c2)N(C)C(=O)[C@H](C(C)C)NC(=O)[C@H](C)NC(=O)CSC[C@@H](C(=O)NCCOCCOCCOCCOCCC(N)=O)NC(=O)[C@H](Cc2ccc(O)cc2)N(C)C(=O)[C@H](Cc2ccncc2)NC(=O)[C@H](CCCCN2CCOCC2)NC(=O)[C@H](CCCNC(=N)N)NC(=O)[C@H]([C@@H](C)CC)NC1=O` [compound 3] ({CH2CO}-AV[NMePhe(3-Cl)]V[Trp(7-aza)]N[3Pal(6-NH2)]Y(Me)IIR[Nle(6-morpholino)][4Pal][NMeY]C[PEG4]-NH2; thioether N-15), the Kd in assay [1] (pH 7.4, single-cycle kinetics) was determined as 2.63 nM; in assay [2] (pH 6.0, single-cycle kinetics) it was 16.1 nM.

Consider `CC[C@H](C)[C@@H]1NC(=O)[C@H](Cc2ccc(OC)cc2)NC(=O)[C@H](Cc2ccc(N)nc2)NC(=O)[C@H](CC(N)=O)NC(=O)[C@H](Cc2c[nH]c3ccccc23)N(C)C(=O)[C@H](C(C)C)NC(=O)[C@H](Cc2cccc(Cl)c2)N(C)C(=O)[C@H](C(C)C)NC(=O)[C@H](C)NC(=O)CSC[C@@H](C(=O)NCCOCCOCCOCCOCCC(N)=O)NC(=O)[C@H](Cc2ccc(C(=O)O)cc2)N(C)C(=O)[C@H](Cc2ccncc2)NC(=O)[C@H](CCCNC(=N)N)NC(=O)[C@H](CCCCN)NC(=O)[C@H]([C@@H](C)CC)NC1=O` [compound 60] ({CH2CO}-AV[NMePhe(3-Cl)]V[NMeW]N[3Pal(6-NH2)]Y(Me)IIKR[4Pal][NMePhe(4-COOH)]C[PEG4]-NH2; thioether N-15), for which the Kd in assay [1] (pH 7.4, single-cycle kinetics) came out at 0.755 nM; in assay [2] (pH 6.0, single-cycle kinetics) it was 4.71 nM.

As to `CCC(CC)[C@@H]1NC(=O)[C@H](Cc2ccc(O)cc2)NC(=O)[C@H](Cc2ccc(O)cc2)NC(=O)[C@H](CC(N)=O)NC(=O)[C@H](Cc2c[nH]c3ccccc23)N(C)C(=O)[C@H](C(C)C)NC(=O)[C@H](Cc2ccccc2)N(C)C(=O)[C@H](C(C)C)NC(=O)[C@H](C)NC(=O)CSC[C@@H](C(=O)NCCOCCOCCOCCOCCC(N)=O)NC(=O)[C@H](Cc2ccc(O)cc2)N(C)C(=O)[C@H](Cc2cccc(C(=O)NCCOCCOCCOCCOCCC(=O)O)c2)NC(=O)[C@H](CCCNC(=N)N)NC(=O)[C@H](CCCCN)NC(=O)[C@H]([C@@H](C)CC)NC1=O` [compound 120] ({CH2CO}-AV[NMeF]V[NMeW]NYY[Nva(3-Et)]IKR[X1](PEG4)[NMeY]C[PEG4]-NH2; thioether N-15), the Kd in assay [1] (SPR, pH 7.4, peptide with the linker named in the table) is 5.8 nM; in assay [2] (SPR, pH 6.0, peptide with the linker named in the table), 13.2 nM.

Take `CC[C@H](C)[C@@H]1NC(=O)[C@H](Cc2ccc(OC)cc2)NC(=O)[C@H](CCCNC(=N)N)NC(=O)[C@H](CC(N)=O)NC(=O)[C@H](Cc2c[nH]c3ccccc23)N(C)C(=O)[C@H](C(C)C)NC(=O)[C@H](Cc2cccc(Cl)c2)N(C)C(=O)[C@H](C(C)C)NC(=O)[C@H](C)NC(=O)CSC[C@@H](C(=O)NCCOCCOCCOCCOCCC(N)=O)NC(=O)[C@H](Cc2ccc(O)cc2)N(C)C(=O)[C@H](Cc2ccccc2)NC(=O)[C@H](CCCNC(=N)N)NC(=O)[C@H](CCC(N)=O)NC(=O)[C@H]([C@@H](C)CC)NC1=O` [compound 174] ({CH2CO}-AV[NMePhe(3-Cl)]V[NMeW]NRY(Me)IIQRF[NMeY]C[PEG4]-NH2; thioether N-15): the Kd in assay [1] (pH 7.4, single-cycle kinetics) was determined as 20.6 nM; in assay [2] (pH 6.0, single-cycle kinetics), 75.5 nM.

`CC[C@H](C)[C@@H]1NC(=O)[C@H](Cc2ccc(OCC(=O)N3CCN(CC(=O)O)CC3)cc2)NC(=O)[C@H](Cc2ccc(O)cc2)NC(=O)[C@H](CC(N)=O)NC(=O)[C@H](Cc2cn(CC(=O)O)c3ccccc23)NC(=O)[C@H](C(C)C)NC(=O)[C@H](Cc2cccc(Cl)c2)N(C)C(=O)[C@H](C(C)C)NC(=O)[C@H](C)NC(=O)CSC[C@@H](C(=O)NCCOCCOCCOCCOCCC(N)=O)NC(=O)[C@H](Cc2ccc(O)cc2)N(C)C(=O)[C@H](Cc2ccncc2)NC(=O)[C@H](CCCCN2CCOCC2)NC(=O)[C@H](CCC(=O)NC[C@H](O)[C@@H](O)[C@H](O)[C@H](O)CO)NC(=O)[C@H]([C@@H](C)CC)NC1=O` [compound 40]: the Kd in assay [1] (pH 7.4, single-cycle kinetics) came out at 43.8 nM; in assay [2] (pH 6.0, single-cycle kinetics), 42.6 nM.
